Earlier results in patent US20130115640A1, “ACTH for Treatment of Kidney Disease” (priority 2011, published 2013).

Test system: TGF-β
Conditions: Losartan 50 mg, 4 weeks, type II diabetes and microalbuminuria

CCCCc1nc(Cl)c(CO)n1Cc1ccc(-c2ccccc2-c2nn[nH]n2)cc1 [Losartan]
plasma TGF-β levels: not altered
urinary TGF-β levels: significantly reduced
